Reference: the supplement of paper PMC10307832

Experiments:
Test in all cases: relative viability (nuclei count vs DMSO), 5 days (fraction); higher = more cells survive
NCI-H1666 = system: NCI-H1666
Summary of the method: (§1)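 Relative viability is defined as nuclei in treated wells over nuclei in vehicle wells. Duplicate plates were run and medians reported. Lung cancer cell lines in 1536-well plates were dosed by pin tool one day after seeding, with one drug or with a fixed anchor-drug dose plus five library-drug doses (not always all listed) in √10 steps, and nuclei were counted after 5 days.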

NCI-H1915 = system: NCI-H1915
Summary of the method: as §1

NCI-H596 = system: NCI-H596
Summary of the method: as §1

NCI-H2342 = system: NCI-H2342
Summary of the method: as §1

NCI-H23 = system: NCI-H23
Summary of the method: as §1

PC-3 [JPC-3] = system: PC-3 [JPC-3]
Summary of the method: as §1

NCI-H520 = system: NCI-H520
Summary of the method: as §1

NCI-H1437 = system: NCI-H1437
Summary of the method: as §1

NCI-H1650 = system: NCI-H1650
Summary of the method: as §1

NCI-H460 = system: NCI-H460
Summary of the method: as §1

EKVX = system: EKVX
Summary of the method: as §1

Structure (SMILES): CCNC(=O)c1noc(-c2cc(C(C)C)c(O)cc2O)c1-c1ccc(CN2CCOCC2)cc1 [Luminespib] + COc1cc2c(Oc3ccc(NC(=O)C4(C(=O)Nc5ccc(F)cc5)CC4)cc3F)ccnc2cc1OCCCN1CCOCC1 [Foretinib] (partner 0.25 µM)
- relative viability (NCI-H1666; first compound 0.002 µM): 0.988
- relative viability (NCI-H1666; first compound 0.006325 µM): 0.904
- relative viability (NCI-H1666; first compound 0.02 µM): 0.986
- relative viability (NCI-H1666; first compound 0.06325 µM): 0.94
- relative viability (NCI-H1666; first compound 0.2 µM): 0.967
- relative viability (NCI-H1915; first compound 0.002 µM): 1.13
- relative viability (NCI-H1915; first compound 0.006325 µM): 1.04
- relative viability (NCI-H1915; first compound 0.02 µM): 1.02
- relative viability (NCI-H1915; first compound 0.06325 µM): 1.05
- relative viability (NCI-H1915; first compound 0.2 µM): 0.826
- relative viability (NCI-H596; first compound 0.002 µM): 0.868
- relative viability (NCI-H596; first compound 0.006325 µM): 0.78
- relative viability (NCI-H596; first compound 0.02 µM): 0.695
- relative viability (NCI-H596; first compound 0.06325 µM): 0.787
- relative viability (NCI-H596; first compound 0.2 µM): 0.783
- relative viability (NCI-H2342; first compound 0.002 µM): 1.02
- relative viability (NCI-H2342; first compound 0.006325 µM): 0.991
- relative viability (NCI-H2342; first compound 0.02 µM): 0.656
- relative viability (NCI-H2342; first compound 0.06325 µM): 0.786
- relative viability (NCI-H2342; first compound 0.2 µM): 0.543
- relative viability (NCI-H23; first compound 0.002 µM): 1.26
- relative viability (NCI-H23; first compound 0.006325 µM): 1.03
- relative viability (NCI-H23; first compound 0.02 µM): 0.858
- relative viability (NCI-H23; first compound 0.06325 µM): 0.971
- relative viability (NCI-H23; first compound 0.2 µM): 0.591
- relative viability (PC-3 [JPC-3]; first compound 0.002 µM): 1.01
- relative viability (PC-3 [JPC-3]; first compound 0.006325 µM): 0.938
- relative viability (PC-3 [JPC-3]; first compound 0.02 µM): 1.18
- relative viability (PC-3 [JPC-3]; first compound 0.06325 µM): 0.728
- relative viability (PC-3 [JPC-3]; first compound 0.2 µM): 0.259
- relative viability (NCI-H520; first compound 0.002 µM): 1.09
- relative viability (NCI-H520; first compound 0.006325 µM): 0.659
- relative viability (NCI-H520; first compound 0.02 µM): 0.651
- relative viability (NCI-H520; first compound 0.06325 µM): 0.147
- relative viability (NCI-H520; first compound 0.2 µM): 0.162
- relative viability (NCI-H1437; first compound 0.002 µM): 1.3
- relative viability (NCI-H1437; first compound 0.006325 µM): 1.2
- relative viability (NCI-H1437; first compound 0.02 µM): 1.33
- relative viability (NCI-H1437; first compound 0.06325 µM): 1.24
- relative viability (NCI-H1437; first compound 0.2 µM): 0.526
- relative viability (NCI-H1650; first compound 0.002 µM): 1.26
- relative viability (NCI-H1650; first compound 0.006325 µM): 1.17
- relative viability (NCI-H1650; first compound 0.02 µM): 1.23
- relative viability (NCI-H1650; first compound 0.06325 µM): 0.158
- relative viability (NCI-H1650; first compound 0.2 µM): 0.164
- relative viability (NCI-H460; first compound 0.002 µM): 1.01
- relative viability (NCI-H460; first compound 0.006325 µM): 1.07
- relative viability (NCI-H460; first compound 0.02 µM): 0.957
- relative viability (NCI-H460; first compound 0.06325 µM): 0.0285
- relative viability (NCI-H460; first compound 0.2 µM): 0.0276
- relative viability (EKVX; first compound 0.002 µM): 0.75
- relative viability (EKVX; first compound 0.006325 µM): 0.453
